Experimental data published in patent US7956219B2, “Amino acid analogues” (Baker IDI Heart and Diabetes, priority 2002, dated 2011).

How the values were obtained:
EA.hy.926 = test: Arginine uptake by endothelial cell line EA.hy.926; format: cell-based; conditions: Homo sapiens, read-out: Arg uptake (% control) from FIG. 4; for activity at 0.1 µM: compound at 10^-7 M (bottom value); for activity at 0.01 µM: compound at 10^-8 M (top value)
From the text: Further studies have been performed to characterize the effects of compounds from library M0006 on arginine transport in endothelial cells. Studies performed in the endothelial cell line EA.hy.926 (Harrison-Shostak et al, 1997) have identified a number of compounds which exert a stimulatory effect on L-arginine transport. This cell line is considered to be more physiologically relevant than HeLa cells to the target conditions, and in fact was more sensitive. Table 16 summarises results for the compounds so far identified which have the highest activity in the arginine transport assay.

HeLa cells = test: Radiolabelled L-arginine uptake into HeLa cells; format: cell-based
Protocol: C: Control performed in the absence of test compound. […] Panel A: Compound A4; Panel B: Compound A7; Panel C: G10; Panel D: Compound H4.
In parallel with this assay, the capacity for these compounds to alter arginine entry into cells was assessed. Initial studies were conducted in HeLa cells. Arginine entry was determined by the rate of entry of radiolabelled L-arginine into the cells, using the method of Kaye et al., (2000). Of the total library, four compounds were identified which had inhibitory activity at a Ki of 100 μM. These compounds were as follows:
In the light of the foregoing discussion, we propose that this effect may be associated with therapeutic benefit.

rat aorta = test: Isolated aortic ring assay: acetyl choline-induced vascular relaxation; conditions: rat aorta sections; compound at 10^−8M
Protocol: FIG. 3 illustrates the augmentation of vascular relaxation produced by increasing concentrations of acetyl choline in the absence of and presence of test compounds. C indicates control.
Initially four compounds were tested for their effect on vascular tone, using an isolated aortic ring assay. In this assay, sections of rat aorta are mounted in an organ bath, and tension is determined continuously using a strain gauge, as described by Furchgott & Zawadski (1980). The effect of test compounds on the vasorelaxant effect of the endothelial-dependent vasodilator acetyl choline (ACh) was examined. […] It will be appreciated that similar experiments may be performed using sections of human aorta, coronary artery or peripheral artery obtained at surgery.

SMILES | activity at 0.1 µM (EA.hy.926) | activity at 0.01 µM (EA.hy.926) | effect on L-arginine transport at low concentration (HeLa cells; HeLa cells, low concentration (10^−7 and 10^−8 M)) | effect on L-arginine transport at high concentration (HeLa cells; high concentration) | augmentation of acetyl choline-induced vascular relaxation (rat aorta)
N=C(NCc1ccco1)Nc1ccc(C(N)=O)cc1OCc1ccccc1 [M0006 02 F06, 3-Benzyloxy-4-(N′-furan-2-ylmethyl-guanidino)-benzamide] | 126% | 158% | – | – | –
COc1ccccc1CNC(=N)Nc1ccc(C(N)=O)cc1OCC1CCC1 [M0006 01 B04, 3-Cyclobutylmethoxy-4-[N′-(2-methoxy-benzyl)-guanidino]-benzamide] | 122% | 130% | – | – | –
N=C(NCc1cc(C(F)(F)F)cc(C(F)(F)F)c1)Nc1ccc(C(N)=O)cc1OCC1CCCCC1 [M0006 01 G10] | 188% | 125% | – | – | –
N=C(NCc1ccc(Cl)c(Cl)c1)Nc1ccc(C(N)=O)cc1OCC1CCCCC1 [M0006 01 H04, 3-Cyclohexylmethoxy-4-[N′-(3,4-dichloro-benzyl)-guanidino]-benzamide] | 92% | 99% | – | – | –
N=C(NCc1ccc(Cl)c(Cl)c1)Nc1ccc(C(N)=O)cc1OCC1CCC1 [M0006 01 A07, 3-Cyclobutylmethoxy-4-[N′-(3,4-dichloro-benzyl)-guanidino]-benzamide] | 66% | 87% | – | – | –
Cc1cccc(COc2cc(C(N)=O)ccc2NC(=N)NCc2ccco2)c1 [M0006 02 H08, 4-(N′-Furan-2-ylmethyl-guanidino)-3-(3-methyl-benzyloxy)-benzamide] | 182% | 108% | – | – | –
CC(CNC(=N)Nc1ccc(C(N)=O)cc1OCC1CCCCO1)c1ccccc1 (centres unmarked) [M0006 01 F05, 4-[N′-(2-Phenyl-propyl)-guanidino)-3-(tetrahydro-pyran-2-ylmethoxy)-benzamide] | 130% | 135% | – | – | –
N=C(NCc1cc(C(F)(F)F)cc(C(F)(F)F)c1)Nc1ccc(C(N)=O)cc1OCC1CCCCC1 [Compound G10, 3-Cyclohexylmelhoxy-4-[N′-(3,5-trifluoromethyl-benzyl)-guanidino]-benzamide] | – | – | enhance L-arginine transport at low concentration | inhibit such transport at high concentration | –
N=C(NCc1ccccc1)Nc1ccc(C(N)=O)cc1OCC1CCCCC1 [M0006 01 H11, 4-(N′-Benzyl-guanidino)-3-cyclohexylmethoxy-benzamide] | 190% | 131% | – | – | –
N=C(NCc1ccc(Cl)c(Cl)c1)Nc1ccc(C(N)=O)cc1OCC1CCCCC1 [Compound H4, 3-Cyclohexylmethoxy-4-[N′-(3,4-dichloro-benzyl)-guanidino]-benzamide] | – | – | – | – | significant augmentation
CC(C)CNC(=N)Nc1ccc(C(N)=O)cc1OCC1CCCCO1 (centres unmarked) [M0006 01 F12, 4-(N′-Isobutyl-guanidino)-3-(tetrahydro-pyran-2-ylmethoxy)-benzamide] | 146% | 103% | – | – | –
N=C(NCc1ccc2c(c1)OCO2)Nc1ccc(C(N)=O)cc1OCC1CCCCO1 (centres unmarked) [M0006 01 F10, 4-(N′-Benzo[1,3]dioxol-5-ylmethyl-guanidino)-3-(tetrahydro-pyran-2-ylmethoxy)-benzamide] | 131% | 119% | – | – | –
N=C(NCc1cc(C(F)(F)F)cc(C(F)(F)F)c1)Nc1ccc(C(N)=O)cc1OCC1CCC1 [M0006 01 A04] | 108% | 103% | – | – | –
N=C(NCNc1ccc([N+](=O)[O-])cn1)Nc1ccc(C(N)=O)cc1OCc1ccccc1 [M0006 02 D06, 3-Benzyloxy-4-{N′-[(5-nitro-pyridin-2-ylamino)-methyl]-guanidino}-benzamide] | 138% | 176% | – | – | –
COc1ccccc1CNC(=N)Nc1ccc(C(N)=O)cc1OCC1CCCCC1 [M0006 01 H10, 3-Cyclohexylmethoxy-4-[N′-(2-methoxy-benzyl)-guanidino]-benzamide] | 146% | 153% | – | – | –
CC(CNC(=N)Nc1ccc(C(N)=O)cc1OCC1CC1)c1ccccc1 (centres unmarked) [M0006 01 C12, 3-Cyclopropylmethoxy-4-[N′-(2-phenyl-propyl)-guanidino]-benzamide] | 133% | 116% | – | – | –
N=C(NCc1ccccc1)Nc1ccc(C(N)=O)cc1OCC1CCCCO1 (centres unmarked) [M0006 01 F09, 4-(N′-Benzyl-guanidino)-3-(tetrahydro-pyran-2-ylmethoxy)-benzamide] | 110% | 140% | – | – | –
N=C(NCc1cc(C(F)(F)F)cc(C(F)(F)F)c1)Nc1ccc(C(N)=O)cc1OCC1CCC1 [Compound A4] | – | – | – | – | significant augmentation
N=C(Nc1ccc(C(N)=O)cc1OCC1CCC1)NC1CCCCC1 [M0006 01 B12, 3-Cyclobutylmethoxy-4-(N′-cyclohexyl-guanidino)-benzamide] | 134% | 161% | – | – | –
N=C(NCc1ccccc1F)Nc1ccc(C(N)=O)cc1OCC1CCC1 [M0006 01 A11, 3-Cyclobutylmethoxy-4-[N′-(2-fluoro-benzyl)-guanidino]-benzamide] | 128% | 159% | – | – | –
Cc1ccc(CNC(=N)Nc2ccc(C(N)=O)cc2OCC2CCC2)cc1 [M0006 01 A12, 3-Cyclobutylmethoxy-4-[N′-(4-methyl-benzyl)-guanidino]-benzamide] | 160% | 179% | – | – | –
N=C(NCC1CCCCC1)Nc1ccc(C(N)=O)cc1OCC1CCCCC1 [M0006 02 A10, 3-Cyclohexylmethoxy-4-(N′-cyclohexylmethyl-guanidino)-benzamide] | 127% | 123% | – | – | –
N=C(NCc1ccccc1)Nc1ccc(C(N)=O)cc1OCc1ccccc1 [M0006 02 E06, 4-(N′-Benzyl-guanidino)-3-benzyloxy-benzamide] | 160% | 167% | – | – | –
